From ChEMBL document CHEMBL4339247, “Ascomylactams A-C, Cytotoxic 12- or 13-Membered-Ring Macrocyclic Alkaloids Isolated from the Mangrove Endophytic Fungus Didymella sp. CYSK-4, and Structure Revisions of Phomapyrrolidones A and C” (J Nat Prod, 2019)

How the values were obtained:
Format in all cases: functional, cell-based
[1] = system: PC-3; assay: Cytotoxicity in human PC3 cells assessed as reduction in cell viability incubated for 72 hrs by MTT assay; conditions: PC-3, 72 h
[2] = system: MDA-MB-231; assay: Cytotoxicity in human MDA-MB-231 cells assessed as reduction in cell viability incubated for 72 hrs by MTT assay; conditions: MDA-MB-231, 72 h
[3] = system: HCT-116; assay: Cytotoxicity in human HCT116 cells assessed as reduction in cell viability incubated for 72 hrs by MTT assay; conditions: HCT-116, 72 h
[4] = system: MDA-MB-435; assay: Cytotoxicity in human MDA-MB-435 cells assessed as reduction in cell viability incubated for 72 hrs by MTT assay; conditions: MDA-MB-435, 72 h
[5] = system: NCI-H460; assay: Cytotoxicity in human NCI-H460 cells assessed as reduction in cell viability incubated for 72 hrs by MTT assay; conditions: NCI-H460, 72 h
[6] = system: SNB-19; assay: Cytotoxicity in human SNB19 cells assessed as reduction in cell viability incubated for 72 hrs by MTT assay; conditions: SNB-19, 72 h

| Compound | IC50 [1] [µM] | IC50 [2] [µM] | IC50 [3] [µM] | IC50 [4] [µM] | IC50 [5] [µM] | IC50 [6] [µM] |
| --- | --- | --- | --- | --- | --- | --- |
| CC1=C[C@@]2(C)C(=C(C)[C@H]3[C@@H]4C[C@H](C)C[C@H](C)[C@H]4[C@H]4Oc5ccc(cc5)C[C@]5(O)NC(=O)[C@]6(O[C@H]65)C(=O)[C@H]2[C@@H]43)[C@H]1C | 22 | 12 | 15 | 16 | 12 | 29 |
| COc1cccc2c1C(=O)c1c(O)c3c(c(O)c1C2=O)C[C@@](O)(C(=O)CO)C[C@@H]3O[C@H]1C[C@H](N)[C@@H](O)[C@H](C)O1 [EPIRUBICIN] | – | – | – | – | – | 2.3 |
| CO[C@@H]1/C2=C(\O)[C@H]3[C@H]4[C@H](Oc5ccc(cc5)C[C@]1(O)NC2=O)[C@H]1[C@@H](C[C@H](C)C[C@@H]1C)[C@@H]4C(C)=C1[C@@H](C)C(C)=C[C@@]13C | 5.7 | 5.9 | 5.5 | 4.9 | 4.4 | 6.8 |
| CC1=C[C@@]2(C)C(=C(C)[C@H]3[C@@H]4C[C@H](C)C[C@H](C)[C@H]4[C@H]4Oc5ccc(cc5)C[C@@H]5C(=O)NC(=O)[C@H]5C(=O)[C@@H]2[C@@H]43)[C@H]1C | > 50 | 30 | 25 | 26 | 28 | > 50 |
| CC1=C[C@@]2(C)C(=C(C)[C@H]3[C@@H]4C[C@H](C)C[C@H](C)[C@H]4[C@H]4Oc5ccc(cc5)C[C@]5(O)NC(=O)[C@]6(O[C@H]65)C(=O)[C@@H]2[C@@H]43)[C@H]1C | 7.5 | 5.1 | 4.2 | 7.8 | 4.4 | 7.8 |
| CC1=C[C@@]2(C)C(=C(C)[C@H]3[C@@H]4C[C@H](C)C[C@H](C)[C@H]4[C@@H]4Oc5ccc(cc5)C[C@@]5(O)C=C(C(=O)N5)C(=O)[C@@H]2[C@@H]43)[C@H]1C | 20 | 6.6 | 4.5 | 12 | 13 | 18 |
